Assay results reported in patent US20210137992A1, “HYPOXIA-INDUCIBLE FACTOR-2A AS A TARGET IN PREVENTION/TREATMENT OF PARKINSON'S DISEASE” (QIngdao University, priority 2019, published 2021).

What was measured:
FPN1 = experiment: Western blot of FPN1 protein expression in primary cultured astrocytes; format: cell-based, Wistar suckling rats
Description: (§1) The astrocytes were inoculated into a six-well plate pre-coated with polylysine at a density of 1.5×10^5/ml. In order to detect the activation of HIF-1α and HIF-2α by 6-OHDA and the corresponding protein expression of DMT1 and FPN1, the cells were divided into groups and treated with drugs. After being treated with 10 μM of 6-OHDA for 24 h, the cells were collected to extract the total protein.
(§2) In order to test the influence of inhibiting the activation of HIF-2α on the protein expression of DMT1 and FPN1 in the astrocytes, the cells were pre-treated with 10 μM of the HIF-2α translation inhibitor for 24 h, and then added with 10 μM of 6-OHDA for co-action for 24 h. Then the total protein was extracted.
(§3) In order to test the influence of inhibiting the activation of HIF-1α on the protein expression of DMT1 and FPN1 in the astrocytes, the cells were pre-treated with 10 μM of Bay87-2243 for 48 h, and then added with 10 μM of 6-OHDA for co-action for 24 h. Then the total protein was extracted.
(§4) The activation and inhibition of HIF-1α and HIF-2α by 6-OHDA and the corresponding protein expression of DMT1 and FPN1 were detected by Western blots.
(§5) After drug treatment of the cells, the medium was completely blotted up, the cells were washed with pre-chilled PBS for three times, and 100 μl of the cell lysis buffer: RIPA lysis buffer (strong) was added to each well, and the cells were lysed on ice for 0.5 h.
(§6) The concentration of the extracted protein was detected by the BCA protein quantitative kit. The protein was sub-packaged according to 30 μg per serving, brought to the same volume with 0.01M PBS, then added with a 4× loading buffer and mixed well, subjected to a water batch above 95° C. for 5 min to denature the protein, and cryopreserved in the refrigerator at −80° C.
(§7) The corresponding primary antibodies were diluted with 5% skim milk: HIF-1α was diluted at 1:1000, HIF-2α was diluted at 1:1000, DMT1 was diluted at 1:800, FPN1 was diluted at 1:800, β-actin was diluted at 1:10000, and incubated in the shaker at 4° C. overnight. It was rinsed with the 1×TBST buffer for 3 times, each time for 10 min.
(§8) The intensity of bands was subjected to density analysis with the Vision Works LS image acquisition and analysis software.

HIF-1α [1] = experiment: Western blot of HIF-1α protein expression in primary cultured astrocytes; format: cell-based, Wistar suckling rats
Description: as §1, §3, §4, §5, §6, §7, §8

DMT1 = experiment: Western blot of DMT1 protein expression in primary cultured astrocytes; format: cell-based, Wistar suckling rats
Description: as §1, §2, §3, §4, §5, §6, §7, §8

[2] = system: primary cultured astrocytes; experiment: Calcein fluorescence iron efflux (transport-out) assay with DFO perfusion; format: cell-based, Wistar suckling rats; conditions: 1 mM DFO perfusion
Description: (§9) The primary-cultured astrocytes were plated at a plating density of 5×10^4/well in a 24-well plate with a polylysine-treated cover slip placed in each well. After the astrocytes were cultured for 48 h, the medium was blotted up, and the cells were rinsed gently with the DMEM/F12 basic medium preheated at 37° C. The cells were then treated in groups with 6 wells in each group, and were continually cultured in a 5% CO2 incubator at 37° C. for 24 h. The medium was blotted up. The cells were rinsed once with HBS preheated at 37° C., added with calcein (0.5 μM), placed in an incubator at 37° C. for 0.5 h for loading, then rinsed with HBS for three times, and then detected.
Calcein-AM was a membrane-permeable non-fluorescent molecule. […] Calcein had high affinity for all of divalent metal ions, and could be combined with various divalent metal ions in the cells and then converted into non-fluorescent substances, which leads to the quenching of the fluorescence. […] The level of cheatable iron in the cells was estimated by determining the decrease degree of the fluorescence intensity. The fluorescence intensity of calcein was inversely proportional to the content of free iron in the cells. When the level of iron in the cells was increased, the free iron combined with calcein, the fluorescence was quenched, and thus the fluorescence intensity was decreased, otherwise it was increased. […]

HIF-1α [3] = experiment: Western blot of HIF-1α protein expression in primary cultured VM neurons; format: cell-based, Wistar mice; conditions: 10 μM 6-OHDA for 24 h, compared to control
Description: (§10) In order to detect the activation of HIF-1α and HIF-2α in the VM neurons by 6-OHDA, the cells were divided into groups and treated with drugs. After being treated with 10 μM of 6-OHDA for 24 h, the cells were collected to extract the total protein.
as §5, §6, §7, §8

HIF-2α [4] = experiment: Western blot of HIF-2α protein expression in primary cultured VM neurons; format: cell-based, Wistar mice; conditions: 10 μM 6-OHDA for 24 h, compared to control
Description: as §10, §5, §6, §7, §8

HIF-2α [5] = experiment: Western blot of HIF-2α protein expression in primary cultured astrocytes; format: cell-based
Description: as §1, §2, §4, §5, §6, §7, §8

[6] = system: primary cultured astrocytes; experiment: Calcein fluorescence ferrous iron influx (transport-in) assay; format: cell-based, Wistar suckling mice; conditions: 1 mM ferrous iron perfusion
Description: as §9
Calcein-AM was a membrane-permeable non-fluorescent molecule. […] Calcein had high affinity for all of divalent metal ions, and could be combined with various divalent metal ions in the cells and then converted into non-fluorescent substances, which leads to the quenching of the fluorescence. In this experimental system, other divalent metal ions such as Mg^2+ and Ca^2+ were removed, and only a Fe^2+ solution was used for perfusion to ensure that the fluorescence change of intracellular calcein was caused by its binding with Fe^2+. The level of cheatable iron in the cells was estimated by determining the decrease degree of the fluorescence intensity. […]

[7] = astrocytes treated with 10 μM BAY 87-2243 alone, compared with control group
[8] = astrocytes, 10 μM BAY 87-2243 pretreatment 48 h then 10 μM 6-OHDA 24 h, compared to 6-OHDA group
[9] = primary cultured astrocytes, 10 μM 6-OHDA for 24 h, compared with control
[10] = astrocytes, 10 μM 6-OHDA for 24 h, compared with control group
[11] = pretreatment with 10 μM HIF-2α inhibitor for 24 h, 10 μM 6-OHDA
[12] = astrocytes treated with 10 μM HIF-2α inhibitor alone, compared to control group
[13] = astrocytes, 10 μM HIF-2α inhibitor pretreatment 24 h then 10 μM 6-OHDA 24 h, compared with 6-OHDA group

Cc1cc(-c2nc(-c3ccc(OC(F)(F)F)cc3)no2)nn1Cc1ccnc(N2CCN(C3CC3)CC2)c1 [BAY 87-2243]
expression of FPN1 (FPN1; [7]): remained unchanged
expression of FPN1 (FPN1; [8]): did not change
expression of HIF-1α (HIF-1α [1]; [7]): decreased
expression of HIF-1α (HIF-1α [1]; astrocytes, 10 μM BAY 87-2243 pretreatment 48 h then co-treatment with 10 μM 6-OHDA 24 h, compared with 6-OHDA group): decreased
expression of DMT1 (DMT1; [7]): remained unchanged
expression of DMT1 (DMT1; [8]): did not change

NCCc1cc(O)c(O)cc1O [6-OHDA, 6-hydroxydopamine]
iron efflux (calcein fluorescence intensity) ([2]; 10 μM 6-OHDA-treated group): marked increase in fluorescence intensity
protein level of HIF-1α (HIF-1α [3]): remained unchanged
protein level of HIF-2α (HIF-2α [4]): remained unchanged
expression of HIF-2α (HIF-2α [5]; [9]): increased
expression of FPN1 (FPN1; [10]): increased
ferrous iron influx (calcein fluorescence quenching) ([6]; cells treated with 10 μM 6-OHDA, compared with controls): more rapid fluorescence quenching
expression of HIF-1α (HIF-1α [1]; [9]): increased
expression of DMT1 (DMT1; [10]): increased

COC(=O)c1sccc1N/N=C(\C#N)S(C)(=O)=O [HIF-2α inhibitor]
effect on 6-OHDA-caused ferrous iron efflux (calcein fluorescence) [2, 11]: fully blocked
expression of HIF-2α (HIF-2α [5]; astrocytes treated with 10 μM HIF-2α inhibitor alone, compared with control group): decreased
expression of HIF-2α (HIF-2α [5]; astrocytes, 10 μM HIF-2α inhibitor pretreatment 24 h then co-treatment with 10 μM 6-OHDA 24 h, compared with 6-OHDA group): decreased
expression of FPN1 (FPN1; [12]): decreased
expression of FPN1 (FPN1; [13]): decreased
effect on 6-OHDA-increased ferrous iron influx (calcein fluorescence) [6, 11]: fully blocked
expression of DMT1 (DMT1; [12]): decreased
expression of DMT1 (DMT1; [13]): decreased
